target: T1, Tyrosine-protein kinase ITK/TSK (Homo sapiens, UniProt Q08881); assay: ITK Enzyme Assay
T1 sequence (Q08881 whole entry): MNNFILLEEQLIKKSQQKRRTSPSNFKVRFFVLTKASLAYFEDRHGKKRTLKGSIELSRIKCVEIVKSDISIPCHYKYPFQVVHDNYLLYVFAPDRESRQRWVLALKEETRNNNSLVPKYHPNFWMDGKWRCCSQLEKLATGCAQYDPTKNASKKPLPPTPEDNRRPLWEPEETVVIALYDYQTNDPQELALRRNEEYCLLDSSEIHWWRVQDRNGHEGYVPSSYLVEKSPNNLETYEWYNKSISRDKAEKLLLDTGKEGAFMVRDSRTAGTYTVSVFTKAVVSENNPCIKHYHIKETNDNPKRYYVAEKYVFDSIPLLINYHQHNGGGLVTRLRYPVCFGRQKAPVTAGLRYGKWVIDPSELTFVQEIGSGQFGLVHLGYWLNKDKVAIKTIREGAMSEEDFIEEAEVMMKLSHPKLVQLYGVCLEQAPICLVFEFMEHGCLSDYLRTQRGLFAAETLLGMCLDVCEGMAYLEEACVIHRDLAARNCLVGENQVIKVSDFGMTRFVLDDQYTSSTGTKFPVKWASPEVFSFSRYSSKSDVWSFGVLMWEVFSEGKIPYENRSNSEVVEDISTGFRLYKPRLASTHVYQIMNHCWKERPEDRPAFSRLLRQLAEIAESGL
Procedure: 1.0 M HEPES Buffer pH 7.5 solution was prepared as follows: 238.3 g HEPES free acid (Sigma) and 800 mL of water were combined, and the mixture was stirred until complete dissolution. The pH was adjusted to 7.5 via titration with 5N NaOH and the volume adjusted to 1000 mL. The solution was filtered and sterilized.ITK assay buffer was prepared as follows: 50 mL of HPLC-grade water was treated with 2 mL of 1.0 M HEPES Buffer, 500 μL of 2% Gelatin (Sigma), 1.0 mL of aqueous MgCl2 solution (1.0 M), and 1.0 mL of aqueous glutathione solution (0.5 M), and the solution was mixed. The solution was brought to 99 mL in a graduated cylinder by addition of water and sterilized through a 0.2 μm filter. 0.1 mL of Brij-35 Surfact-Amps Detergent Solution (10% w/v aqueous solution, ThermoFisher) and 1.0 mL of ATP (Teknova,100 mM) were added and the solution was mixed.Preparation of 1.33 ITK enzyme solution was as follows: 49.99 mL of ITK assay buffer was treated with 4.1 μL of ITK enzyme (ITK FL (N-Flag and C-His tagged, […]) Lake Pharma, 0.25 mg/ml in a buffer containing 25 mM Tris pH 7.8, 150 mM NaCl, 10% glycerol and 2 mM TCEP) and the mixture was gently agitated. The resulting solution was stored on ice. 30 Minutes prior to use, the enzyme solution was removed from ice and equilibrated to RT by incubation in a RT water bath.

SMILES | IC50
C[C@@H](C(=O)N(C)c1cnc2[nH]c(-c3n[nH]c4c3CCC(C)(C)C4)nc2c1)N1CCOCC1 [US20240124439, Example 14] | 147 nM
CC(C)(C(=O)Nc1cnc2[nH]c(-c3n[nH]c4c3C[C@@H]3C[C@]3(C)C4)nc2c1)N1CCOCC1 [US20240124439, Example 16] | 747 nM
CCN(C(=O)[C@H](C)C1CCOCC1)c1cnc2[nH]c(-c3n[nH]c4c3CCC(C)(C)C4)nc2c1 [US20240124439, Example 18] | 28 nM
C[C@H](C(=O)N(C)c1cnc2[nH]c(-c3n[nH]c4c3C[C@@H]3C[C@]3(C)C4)nc2c1)N1CCOCC1 [US20240124439, Example 26] | 136 nM
C[C@@H](C(=O)Nc1ccc2[nH]c(-c3n[nH]c4c3CCC(C)(C)C4)nc2c1)N1CCOCC1 [US20240124439, Example 33] | 2000 nM
CCc1nc2[nH]c(-c3n[nH]c4c3C[C@@H]3C[C@]3(C)C4)nc2cc1N(C)C(=O)CN1CCOCC1 [US20240124439, Example 37] | 147 nM
CN(C(=O)CC1CC(F)(F)C1)c1cnc2nc(-c3n[nH]c4c3C[C@@H]3C[C@]3(C)C4)[nH]c2c1 [US20240124439, Example 48] | 66 nM
CN(C(=O)CC1CC2(CCC2)C1)c1cnc2nc(-c3n[nH]c4c3C[C@@H]3C[C@]3(C)C4)[nH]c2c1 [US20240124439, Example 49] | 25 nM
CN(C(=O)CC1CC2(C1)CC2(F)F)c1cnc2nc(-c3n[nH]c4c3C[C@@H]3C[C@]3(C)C4)[nH]c2c1 (stereo not given in full) [US20240124439, Example 50] | 33 nM
CN(C(=O)CC1CC2(C1)CC(F)(F)C2)c1cnc2nc(-c3n[nH]c4c3C[C@@H]3C[C@]3(C)C4)[nH]c2c1 [US20240124439, Example 54] | 62 nM
